Measured values published in ChEMBL document CHEMBL1147767, “Synthesis and biological evaluation of biphenylsulfonamide carboxylate aggrecanase-1 inhibitors” (Bioorg Med Chem Lett, 2006).
Active and inactive are the calls of the source. No cut-off for these calls is given here.

What was measured:
[1] = target: T1, A disintegrin and metalloproteinase with thrombospondin motifs 4 (Homo sapiens, UniProt O75173)
T1 sequence (O75173 whole entry): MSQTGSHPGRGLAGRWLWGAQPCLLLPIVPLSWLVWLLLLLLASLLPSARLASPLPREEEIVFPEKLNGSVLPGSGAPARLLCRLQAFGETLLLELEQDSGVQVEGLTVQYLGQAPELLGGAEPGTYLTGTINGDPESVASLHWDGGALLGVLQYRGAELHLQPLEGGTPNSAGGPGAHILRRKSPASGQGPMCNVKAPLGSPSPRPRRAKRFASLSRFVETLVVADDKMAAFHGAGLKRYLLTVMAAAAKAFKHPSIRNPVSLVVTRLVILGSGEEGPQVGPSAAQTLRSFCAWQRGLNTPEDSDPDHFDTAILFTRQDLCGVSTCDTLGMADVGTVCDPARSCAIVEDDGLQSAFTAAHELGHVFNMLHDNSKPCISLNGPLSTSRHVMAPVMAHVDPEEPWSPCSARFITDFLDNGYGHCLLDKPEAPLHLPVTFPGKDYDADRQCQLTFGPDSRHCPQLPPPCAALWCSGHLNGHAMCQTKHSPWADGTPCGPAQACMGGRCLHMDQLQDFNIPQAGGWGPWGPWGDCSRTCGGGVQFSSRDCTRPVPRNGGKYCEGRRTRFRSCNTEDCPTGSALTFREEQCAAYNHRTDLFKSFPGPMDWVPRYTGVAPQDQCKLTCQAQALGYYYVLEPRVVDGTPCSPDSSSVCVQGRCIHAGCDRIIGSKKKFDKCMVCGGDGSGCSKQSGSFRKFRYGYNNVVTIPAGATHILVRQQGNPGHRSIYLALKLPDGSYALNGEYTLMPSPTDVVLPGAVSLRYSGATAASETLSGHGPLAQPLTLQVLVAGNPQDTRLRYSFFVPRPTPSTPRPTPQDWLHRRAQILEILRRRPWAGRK

[2] = target: T2, A disintegrin and metalloproteinase with thrombospondin motifs 4 (Homo sapiens) (UniProt O75173); assay: Inhibitory activity against human Aggrecanase 1
T2 sequence (whole entry): T1 sequence (O75173 whole entry)

[3] = target: 72 kDa type IV collagenase (Homo sapiens, UniProt P08253); assay: Inhibitory activity against MMP2
Chain of 72 kDa type IV collagenase (P08253 whole entry): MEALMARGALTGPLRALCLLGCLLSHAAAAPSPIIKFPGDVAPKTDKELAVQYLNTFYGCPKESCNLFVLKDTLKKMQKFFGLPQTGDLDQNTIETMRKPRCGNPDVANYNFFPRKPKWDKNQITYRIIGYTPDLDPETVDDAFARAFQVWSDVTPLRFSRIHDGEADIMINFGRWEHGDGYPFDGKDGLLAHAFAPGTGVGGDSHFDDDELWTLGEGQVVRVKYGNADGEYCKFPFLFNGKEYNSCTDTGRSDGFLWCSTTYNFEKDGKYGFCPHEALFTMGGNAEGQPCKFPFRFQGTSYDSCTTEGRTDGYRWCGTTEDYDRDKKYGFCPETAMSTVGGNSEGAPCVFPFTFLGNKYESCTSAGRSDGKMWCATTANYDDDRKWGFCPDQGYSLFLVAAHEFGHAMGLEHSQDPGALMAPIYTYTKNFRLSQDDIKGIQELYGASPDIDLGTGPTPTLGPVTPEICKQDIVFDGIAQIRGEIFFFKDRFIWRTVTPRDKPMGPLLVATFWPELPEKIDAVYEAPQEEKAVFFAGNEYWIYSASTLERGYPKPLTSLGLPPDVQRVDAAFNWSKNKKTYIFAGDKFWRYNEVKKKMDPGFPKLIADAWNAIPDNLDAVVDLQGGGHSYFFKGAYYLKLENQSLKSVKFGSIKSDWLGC

[4] = target: Collagenase 3 (Homo sapiens, UniProt P45452)
[5] = target: Matrix metalloproteinase-14 (Homo sapiens, UniProt P50281); assay: Inhibitory activity against MMP14
[6] = target: T3, Interstitial collagenase (Homo sapiens, UniProt P03956); assay: Inhibitory activity against MMP1
T3 sequence (P03956 whole entry): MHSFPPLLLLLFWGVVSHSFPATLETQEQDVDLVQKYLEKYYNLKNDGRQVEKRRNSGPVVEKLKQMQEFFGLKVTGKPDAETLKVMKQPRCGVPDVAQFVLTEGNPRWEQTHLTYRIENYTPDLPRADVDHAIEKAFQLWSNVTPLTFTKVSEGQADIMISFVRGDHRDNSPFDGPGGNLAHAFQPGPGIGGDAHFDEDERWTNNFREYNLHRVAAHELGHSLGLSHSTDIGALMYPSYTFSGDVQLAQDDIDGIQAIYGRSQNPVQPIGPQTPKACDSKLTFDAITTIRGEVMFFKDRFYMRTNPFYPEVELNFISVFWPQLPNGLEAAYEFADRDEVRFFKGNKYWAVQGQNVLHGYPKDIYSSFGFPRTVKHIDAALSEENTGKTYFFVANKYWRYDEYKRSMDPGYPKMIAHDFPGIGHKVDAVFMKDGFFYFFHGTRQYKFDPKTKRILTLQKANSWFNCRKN

[7] = Cmax in male Sprague-Dawley rats; format: ADME, organism-based; details: rat, in vivo
[8] = Oral bioavailability in male Sprague-Dawley rats; format: ADME, organism-based; details: rat, in vivo
[9] = Half life in male Sprague-Dawley rats; format: ADME, organism-based; details: rat, in vivo
[10] = target: T4, A disintegrin and metalloproteinase with thrombospondin motifs 4 (Bos taurus) (UniProt Q9TT93); assay: Inhibition of IL1induced proteoglycan degradation in bovine cartilage, 3 day incubation at 10 ug/mL; format: functional
T4 sequence (whole entry): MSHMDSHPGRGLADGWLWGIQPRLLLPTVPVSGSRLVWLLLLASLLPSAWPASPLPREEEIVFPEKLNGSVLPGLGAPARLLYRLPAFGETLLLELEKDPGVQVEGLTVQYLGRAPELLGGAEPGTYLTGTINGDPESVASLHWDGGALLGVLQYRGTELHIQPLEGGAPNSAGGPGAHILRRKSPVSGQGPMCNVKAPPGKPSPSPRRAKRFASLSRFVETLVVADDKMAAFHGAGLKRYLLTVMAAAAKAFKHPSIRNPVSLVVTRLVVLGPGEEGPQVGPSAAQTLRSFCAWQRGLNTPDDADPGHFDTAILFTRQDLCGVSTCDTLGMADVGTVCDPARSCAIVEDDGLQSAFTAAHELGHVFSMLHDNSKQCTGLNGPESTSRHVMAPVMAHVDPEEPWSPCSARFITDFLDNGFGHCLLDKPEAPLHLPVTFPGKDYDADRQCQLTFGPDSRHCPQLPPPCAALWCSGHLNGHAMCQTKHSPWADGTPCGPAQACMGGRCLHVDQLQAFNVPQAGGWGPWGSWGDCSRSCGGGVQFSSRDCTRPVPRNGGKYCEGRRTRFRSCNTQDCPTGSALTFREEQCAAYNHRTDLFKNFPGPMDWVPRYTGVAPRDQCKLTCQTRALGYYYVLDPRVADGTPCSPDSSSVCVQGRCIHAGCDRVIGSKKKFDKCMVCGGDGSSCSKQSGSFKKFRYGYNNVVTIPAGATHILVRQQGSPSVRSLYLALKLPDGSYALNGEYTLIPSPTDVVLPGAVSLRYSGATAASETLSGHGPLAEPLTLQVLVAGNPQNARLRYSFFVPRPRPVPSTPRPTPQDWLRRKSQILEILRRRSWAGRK

[11] = Clearance in male Sprague-Dawley rats; format: ADME, organism-based; details: rat, in vivo

With `CC(C)[C@@H](NS(=O)(=O)c1ccc(-c2ccccc2)c(N)c1)C(=O)O` as the molecule, how does the IC50 [1] read?
The IC50 was 30 µM.

For `CC(C)[C@@H](NS(=O)(=O)c1ccc(-c2ccccc2)cc1)C(=O)O`, which IC50 [1] is on record?
The IC50 was 3 µM.

With `O=C(O)CC[C@@H](NS(=O)(=O)c1ccc(-c2ccccc2)cc1)C(=O)O` as the molecule, how does the IC50 [1] read?
Its IC50 is 1.1 µM.

With `CC(C)C(CC(=O)O)NS(=O)(=O)c1ccc(-c2ccccc2)cc1` (stereo unspecified) as the molecule, how does the IC50 [1] read?
The IC50 was 100 µM.

Which IC50 [1] does the source give for `CC(C)[C@@H](NS(=O)(=O)c1ccc(-c2ccccc2O)cc1)C(=O)O` here?
The IC50 was 20 µM.

With `C[C@@H](NS(=O)(=O)c1ccc(-c2ccccc2)cc1)C(=O)O` as the molecule, how does the IC50 [1] read?
Its IC50 is 5.5 µM.

For `CC(C)[C@H](C(=O)O)N(Cc1cccnc1)S(=O)(=O)c1ccc(-c2ccccc2)cc1`, which IC50 [1] is on record?
The IC50 was 12 µM.

Which IC50 [1] does the source give for `CC(C)[C@@H](NS(=O)(=O)c1ccc(-c2ccc(OC(=O)c3cc4ccccc4o3)cc2)cc1)C(=O)O` here?
The IC50 was 0.35 µM.

For `CC(C)[C@@H](NS(=O)(=O)c1ccc(-c2ccccc2[N+](=O)[O-])cc1)C(=O)O`, which IC50 [1] is on record?
Its IC50 is 50 µM.

Which IC50 [1] does the source give for `CC(C)[C@@H](NS(=O)(=O)c1ccc(-c2ccc(OCc3cc4ccccc4o3)cc2)cc1)C(=O)O` here?
Its IC50 is 1.4 µM.

For `CC(C)[C@H](C(=O)O)N(C)S(=O)(=O)c1ccc(-c2ccccc2)cc1`, which IC50 [1] is on record?
Its IC50 is 1.6 µM.

Which IC50 [1] does the source give for `CC(C)[C@@H](NS(=O)(=O)c1ccc(-c2ccc(/C=C/c3cc4ccccc4o3)cc2)cc1)C(=O)O` here?
Its IC50 is 0.4 µM.

With `CC(C)[C@@H](NS(=O)(=O)c1ccc(-c2ccc(NC(=O)c3cc4ccccc4o3)cc2)cc1)C(=O)O` as the molecule, how does the IC50 [1] read?
Its IC50 is 7.5 µM.

For `CC(C)[C@@H](NS(=O)(=O)c1ccc(-c2ccc(CC(=O)c3cc4ccccc4o3)cc2)cc1)C(=O)O`, which IC50 [1] is on record?
The IC50 was 3.8 µM.

With `COc1ccc(S(=O)(=O)N(Cc2cccnc2)C(C(=O)NO)C(C)C)cc1` (single isomer, unassigned) as the molecule, how does the inhibition [2] read?
Its inhibition is “inactive”.

With `CC(C)[C@@H](NS(=O)(=O)c1cccc(-c2ccccc2)c1)C(=O)O` as the molecule, how does the IC50 [1] read?
The IC50 was over 100 µM.

With `CC(C)[C@H](NS(=O)(=O)c1ccc(-c2ccccc2)cc1)C(=O)O` as the molecule, how does the IC50 [1] read?
Its IC50 is over 100 µM.

With `COc1ccc(S(=O)(=O)N(Cc2cccnc2)[C@@H](C(=O)NO)C(C)C)cc1` as the molecule, how does the inhibition ([2]; concentration not given here) read?
The inhibition was 92%.

For `O=C(O)[C@@H](Cc1cc2ccccc2[nH]1)NS(=O)(=O)c1ccc(-c2ccccc2)cc1`, which IC50 [1] is on record?
The IC50 was 2.8 µM.

With `Cc1c(C(=O)Oc2ccc(-c3ccc(S(=O)(=O)N[C@@H](C(=O)O)C(C)C)cc3)cc2)oc2ccccc12` as the molecule, how does the IC50 [1] read?
Its IC50 is 0.086 µM.

For `O=C(O)[C@@H](Cc1ccccc1)NS(=O)(=O)c1ccc(-c2ccccc2)cc1`, which IC50 [1] is on record?
Its IC50 is 4.3 µM.

What does the source list for `Cc1c(COc2ccc(-c3ccc(S(=O)(=O)N[C@H](Cc4ccccc4)C(=O)O)cc3)cc2)oc2ccccc12`?
IC50 [3]: 0.028 µM; IC50 [4]: 0.0044 µM; IC50 [5]: 3 µM; IC50 [6]: > 100 µM; Cmax [7]: 1360 ng/mL; bioavailability [8]: 35%; half-life [9]: 4.62 h; inhibition [10]: 89%; clearance [11]: 16.1 mL/min/kg; IC50 [1]: 0.7 µM
